Reference: US20090105327A1, “Dibenzocycloheptane compounds and pharmaceuticals containing these compounds” (Merckle GMBH, priority 2005, published 2009)

Legend:
activated p38α = activated p38α (Homo sapiens, UniProt Q16539); assay: Kinase assay (p38 MAP kinase assay), ATF2 phosphorylation ELISA; format: biochemical; conditions: 100 μM ATP, 10 ng activated p38α, ATF2 substrate; read-out: Inhibition of p 38 MAP kinase assay IC50
Method: Kinase Assay (p38 MAP Kinase Assay)
Microtiter plates were coated with 50 μl of ATF2 solution (20 μg/ml) at 37° C. for one hour. After washing with water three times, 50 μl of kinase mixture (50 mM tris-HCl 10 mM MgCl2, 10 mM β-glycerol phosphate, 10 μg/ml BSA, 1 mM DTT, 100 μM ATP, 100 μM Na3VO4, 10 ng of activated p38α) with or without inhibitor were put into the wells and incubated at 37° C. for 1 hour. After washing three times, the plates were incubated with […] at 37° C. for one hour. After washing again three times, a goat anti-rabbit IgG labeled with alkaline phosphatase was added at 37° C. for one hour (in order to retain the antibody phosphorylated protein-substrate complex). After washing three times, the alkaline phosphatase substrate solution (3 mM 4-NPP, 50 mM NaHCO3, 50 mM MgCl2, 100 μl/well) was added at 37° C. for 1.5 hours. […] The IC50 values are calculated.

IL-1β = assay: tissue or blood; conditions: Homo sapiens, 4 h, read-out: Inhibition of IL-1β (whole blood) IC50
Method: (§1) The compounds or compositions of the invention can be administered to a mammal (human or animal) in a dose of about 0.5 mg to 100 mg per kg of body weight per day. They can be given in a single dose or in a plurality of doses. […] Pharm. Pharm. Med. Chem. 333, Suppl. 1, 1-40, 2000.
(§2) In Vitro Test Method with Human Whole Blood
(§3) Samples of human potassium EDTA whole blood (400 μl each) are mixed with the test substance and preincubated at 37° C. in a CO2 incubator (5% CO2; 95% moisture-saturated air) for 15 min. The samples are then stimulated with 1 μg/ml LPS (E. coli 026:B6) in a CO2 incubator (5% CO2; 95% moisture-saturated air) at 37° C. for 4 hours. The reaction is stopped by placing the samples on ice, adding DPBS buffer and subsequently centrifuging at 1000.g for 15 min. The amount of IL-1β and TNFα in the plasma supernatant is then measured by means of an ELISA.

TNF-α = assay: tissue or blood; conditions: Homo sapiens, 4 h, read-out: Inhibition of TNF-α (whole blood) IC50
Method: as §1, §2, §3

Sequence of activated p38α (Q16539 whole entry): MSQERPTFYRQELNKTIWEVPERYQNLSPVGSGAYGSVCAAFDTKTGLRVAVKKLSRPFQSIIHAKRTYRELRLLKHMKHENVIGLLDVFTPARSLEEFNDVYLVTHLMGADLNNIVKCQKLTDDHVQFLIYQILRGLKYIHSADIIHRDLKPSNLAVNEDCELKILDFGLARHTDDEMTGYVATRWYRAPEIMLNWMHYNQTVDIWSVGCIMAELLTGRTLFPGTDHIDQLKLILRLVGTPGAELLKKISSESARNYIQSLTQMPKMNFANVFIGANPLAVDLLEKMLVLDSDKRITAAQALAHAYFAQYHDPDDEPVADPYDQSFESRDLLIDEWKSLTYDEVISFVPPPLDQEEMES

Molecule | IC50 (activated p38α) | IC50 (IL-1β) | IC50 (TNF-α) | melting point
3-(2-Amino-4-fluorophenylamino)-6,11-dihydrodibenzo[b,e]oxepin-11-one [Example 24] | 38 nM | – | – | –
Nc1ccccc1Nc1ccc2c(c1)SCc1ccccc1C2=O [Example 4, 3-(2-Aminoanilino)-6,11-dihydrodibenzo[b,e]thiepin-11-one] | 1100 nM | – | – | –
Nc1ccccc1Nc1ccc2c(c1)OCc1ccccc1C2=O [Example 5, 3-(2-Aminoanilino)-6,11-dihydrodibenzo[b,e]oxepin-11-one] | 300 nM | – | – | –

Next, values leading:

IC50 (activated p38α) | IC50 (IL-1β) | IC50 (TNF-α) | melting point | Molecule
– | 1800 nM | 2300 nM | – | Nc1ccccc1Nc1ccc2c(c1)CCc1ccccc1C2=O [Example 25, 2-(2-Aminophenylamino)-10,11-dihydrodibenzo[a,d]cycloheptan-5-one]
159 nM | – | – | 52.5 °C | COc1ccccc1Nc1ccc2c(c1)CCc1ccccc1C2=O [Example 28, 2-(2-Methoxyphenylamino)-10,11-dihydrodibenzo[a,d]cyclohepten-5-one]
